Laboratory results from ChEMBL document CHEMBL1134813, “Inhibition of HIV-1 infection by synthetic peptide analogues derived from the NH(2)-Terminal extracellular region of GPR1” (Bioorg Med Chem Lett, 2001).
pIC50: −log10 of the molar value. Where a SMILES comes first, the peptide text is derived from it. [ ]: non-standard residue; d: D form. The star is where a group is joined. sY = N[C@@H](Cc1ccc(OS(=O)(=O)O)cc1)C(=O)O; X1 = O=S(=O)(O)O*

Key:
C8166 [1] = experiment: Anti HIV-1 activity was evaluated through C8166/GUN1WT syncytium formation assay at a concentration of 1000 ug/mL; type: functional, Homo sapiens
[2] = Anti HIV-1 activity measured in terms of cytotoxicity against NP-2/CD4/CXCR4 cells infected with HIV-1 (IIIBstrain); type: functional, cell-based, Homo sapiens
C8166 [3] = experiment: Anti HIV-1 activity was evaluated through C8166/GUN1WT syncytium formation assay at a concentration of 50 ug/mL; type: functional, Homo sapiens
[4] = Anti HIV-1 activity measured in terms of cytotoxicity against NP-2/CD4/CXCR4 cells infected with HIV-1(GUN1WT); type: functional, cell-based, Homo sapiens
C8166 [5] = experiment: Anti HIV-1 activity was evaluated through C8166/GUN1WT syncytium formation assay at a concentration of 200 ug/mL; type: functional, Homo sapiens
[6] = Anti HIV-1 activity measured in terms of cytotoxicity against NP-2/CD4/CCR5 cells infected with HIV-1(GUN1WT); type: functional, cell-based, Homo sapiens
[7] = Anti HIV-1 activity measured in terms of cytotoxicity against NP-2/CD4/GPR1 cells infected with HIV-1 (GUN1V); type: functional, cell-based, Homo sapiens
C8166 [8] = experiment: Anti HIV-1 activity was evaluated through C8166/GUN1WT syncytium formation assay at a concentration of 0 ug/mL; type: functional, Homo sapiens

Row | Compound | Activity (C8166 [1]) | pIC50 [2] | Activity (C8166 [3]) | pIC50 [4] | Activity (C8166 [5]) | pIC50 ([6]; np-2/cd4/ccr5) | pIC50 [7] | pIC50 ([2]; Homo sapiens) | pIC50 ([4]; Homo sapiens) | pIC50 ([6]; Homo sapiens, CCR5) | pIC50 ([7]; Homo sapiens) | Activity (C8166 [8])
1 | CC(C)C[C@H](NC(=O)[C@H](CC(=O)OS(=O)(=O)O)NC(=O)[C@H](Cc1ccc(OS(=O)(=O)O)cc1)NC(=O)[C@H](COS(=O)(=O)O)NC(=O)[C@@H](N)Cc1ccc(OS(=O)(=O)O)cc1)C(=O)N[C@@H](CC(=O)OS(=O)(=O)O)C(=O)N[C@@H](Cc1ccc(OS(=O)(=O)O)cc1)C(=O)N[C@@H](Cc1ccc(OS(=O)(=O)O)cc1)C(=O)O.CCN(CC)CC.CCN(CC)CC.CCN(CC)CC.CCN(CC)CC.CCN(CC)CC.CCN(CC)CC.CCN(CC)CC | 4 | 4.74 | 258 | 5.00 | 52 | 4.38 | 5.35 |  |  |  |  | 
2 | CC(C)C[C@H](NC(=O)[C@H](CC(=O)OS(=O)(=O)[O-])NC(=O)[C@H](Cc1ccc(OS(=O)(=O)[O-])cc1)NC(=O)[C@H](COS(=O)(=O)[O-])NC(=O)[C@@H](N)Cc1ccc(OS(=O)(=O)[O-])cc1)C(=O)N[C@@H](CC(=O)OS(=O)(=O)[O-])C(=O)N[C@@H](Cc1ccc(OS(=O)(=O)[O-])cc1)C(=O)N[C@@H](Cc1ccc(OS(=O)(=O)[O-])cc1)C(=O)O.[Na+].[Na+].[Na+].[Na+].[Na+].[Na+].[Na+] | 191 |  | 235 |  | 210 |  | 3.18 |  |  |  |  | 
3 | CCN(CC)CC.CCN(CC)CC.CCN(CC)CC.CCN(CC)CC.CCN(CC)CC.CCN(CC)CC.CCN(CC)CC.CCN(CC)CC.COC(=O)C(=O)N1CCC[C@H]1C(=O)N[C@H](Cc1ccccc1)C(=O)Nc1ccccc1OCC(=O)N[C@@H](Cc1ccc(OS(=O)(=O)O)cc1)C(=O)N[C@@H](COS(=O)(=O)O)C(=O)N[C@@H](Cc1ccc(OS(=O)(=O)O)cc1)C(=O)N[C@@H](CC(=O)OS(=O)(=O)O)C(=O)N[C@@H](CC(C)C)C(=O)N[C@@H](CC(=O)OS(=O)(=O)O)C(=O)N[C@@H](Cc1ccc(OS(=O)(=O)O)cc1)C(=O)N[C@@H](Cc1ccc(OS(=O)(=O)O)cc1)C(=O)O | 1 |  | 219 |  | 66 |  |  | 5.00 | 5.00 | 4.38 | 5.39 | 
4 | CCN(CC)CC.CCN(CC)CC.CCN(CC)CC.CCN(CC)CC.CCN(CC)CC.COC(=O)C(=O)N1CCC[C@H]1C(=O)N[C@H](Cc1ccccc1)C(=O)Nc1ccccc1OCC(=O)N[C@@H](Cc1ccc(OS(=O)(=O)O)cc1)C(=O)N[C@@H](CC(=O)OS(=O)(=O)O)C(=O)N[C@@H](CC(C)C)C(=O)N[C@@H](CC(=O)OS(=O)(=O)O)C(=O)N[C@@H](Cc1ccc(OS(=O)(=O)O)cc1)C(=O)N[C@@H](Cc1ccc(OS(=O)(=O)O)cc1)C(=O)O | 12 |  | 182 |  | 88 |  |  | 4.26 | 4.10 | 4.22 | 4.46 | 
5 | CC(C)C[C@H](NC(=O)[C@H](CC(=O)O)NC(=O)[C@@H](N)Cc1ccc(O)cc1)C(=O)N[C@@H](CC(=O)O)C(=O)N[C@@H](Cc1ccc(O)cc1)C(=O)N[C@@H](Cc1ccc(O)cc1)C(=O)O (H-YDLDYY-OH) | 4 |  | 188 |  | 62 |  |  | 3.46 | 3.74 | 4.18 | 4.38 | 
6 | CC(C)C[C@H](NC(=O)[C@H](CC(=O)OS(=O)(=O)O)NC(=O)[C@H](Cc1ccc(OS(=O)(=O)O)cc1)NC(=O)[C@H](COS(=O)(=O)O)NC(=O)[C@@H](N)Cc1ccc(OS(=O)(=O)O)cc1)C(=O)N[C@@H](CC(=O)OS(=O)(=O)O)C(=O)N[C@@H](Cc1ccc(OS(=O)(=O)O)cc1)C(=O)N[C@@H](Cc1ccc(OS(=O)(=O)O)cc1)C(=O)O | 124 | < 3.00 | 231 | < 3.00 | 165 | < 3.00 | < 3.00 |  |  |  |  | 
7 | CC(C)C[C@H](NC(=O)[C@H](CC(=O)OS(=O)(=O)O)NC(=O)[C@@H](N)Cc1ccc(OS(=O)(=O)O)cc1)C(=O)N[C@@H](CC(=O)OS(=O)(=O)O)C(=O)N[C@@H](Cc1ccc(OS(=O)(=O)O)cc1)C(=O)N[C@@H](Cc1ccc(OS(=O)(=O)O)cc1)C(=O)O.CCN(CC)CC.CCN(CC)CC.CCN(CC)CC.CCN(CC)CC.CCN(CC)CC (H-[sY]D(X1)LD(X1)[sY][sY]-OH) | 0 |  | 193 |  | 52 |  |  | 4.82 | 4.19 | 4.26 | 4.60 | 215
8 | CC(C)C[C@H](NC(=O)[C@H](CC(=O)O)NC(=O)[C@H](Cc1ccc(O)cc1)NC(=O)[C@H](CO)NC(=O)[C@@H](N)Cc1ccc(O)cc1)C(=O)N[C@@H](CC(=O)O)C(=O)N[C@@H](Cc1ccc(O)cc1)C(=O)N[C@@H](Cc1ccc(O)cc1)C(=O)O (H-YSYDLDYY-OH) | 133 |  | 228 |  | 252 |  |  | < 3.00 | < 3.00 | < 3.00 | 3.18 | 
9 | COC(=O)C(=O)N1CCC[C@H]1C(=O)N[C@H](Cc1ccccc1)C(=O)Nc1ccccc1OCC(=O)N[C@@H](Cc1ccc(O)cc1)C(=O)N[C@@H](CC(=O)O)C(=O)N[C@@H](CC(C)C)C(=O)N[C@@H](CC(=O)O)C(=O)N[C@@H](Cc1ccc(O)cc1)C(=O)N[C@@H](Cc1ccc(O)cc1)C(=O)O | 55 |  | 155 |  | 100 |  |  | 3.82 | 4.00 | 3.92 | 4.00 | 192
10 | COC(=O)C(=O)N1CCC[C@H]1C(=O)N[C@H](Cc1ccccc1)C(=O)Nc1ccccc1OCC(=O)N[C@@H](Cc1ccc(O)cc1)C(=O)N[C@@H](CO)C(=O)N[C@@H](Cc1ccc(O)cc1)C(=O)N[C@@H](CC(=O)O)C(=O)N[C@@H](CC(C)C)C(=O)N[C@@H](CC(=O)O)C(=O)N[C@@H](Cc1ccc(O)cc1)C(=O)N[C@@H](Cc1ccc(O)cc1)C(=O)O | 121 |  | 215 |  | 222 |  |  | < 3.00 | < 3.00 | < 3.00 | 3.18 | 
